Test [1] addresses T1, N-type Ca2+ channels in superior cervical ganglion (SCG) neurons (Rattus norvegicus, UniProt Q02294).
T1 construct: from tissue
Kind of test: Whole-cell voltage clamp, N-type Ca2+ current in SCG neurons. The conditions noted are these: for IC50: read-out: Inhibition of N-type Ca2+ Current IC50. The format is cell-based. A digest of the protocol:
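Whole-cell voltage clamp of acutely trypsin-dissociated rat SCG neurons, with TEA/choline external solution (2 mM Ca2+) and Cs-methanesulfonate pipette solution. Currents evoked by 150 ms steps to +20 mV from −65 to −55 mV holding, every 40 s; compounds applied locally, effect as % inhibition of control amplitude.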

Test [2] deals with K+ channels in superior cervical ganglion (SCG) neurons. Kind of test: Whole-cell voltage clamp, K+ current in SCG neurons. Type of test: cell-based, rat. A digest of the protocol: (§1)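 Acutely dissociated (trypsin) SCG neurons under whole-cell voltage clamp, external NaCl/KCl/HEPES buffer pH 7.4, K-gluconate/KCl pipette. From holding potential −65 to −55 mV, 35 msec steps every 10 sec to 0 mV (peak Na+ current) or +50 mV (sustained K+ current); compounds perfused locally to steady-state block, reported as percent inhibition of control.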

Test [3] deals with Na+ channels in superior cervical ganglion (SCG) neurons. Kind of test: Whole-cell voltage clamp, Na+ current in SCG neurons. The format is cell-based, rat. In short, it runs like this: as §1
In the next test the test system is DBA/2 mice. Kind of test: animal or person. The format is in vivo. Conditions: for responders at 10 mg/kg / responders at 30 mg/kg / responders at 100 mg/kg: Mus musculus, iv, read-out: Number of Mice Protected from Tonic Convulsions. On the procedure:
Audiogenic Seizure Model in DBA/2 Mice
In Vivo Biological Protocol
A compound of the present invention was dissolved in water using 10% (weight/volume) Emulphor (GAF Cop., Wayne N.J. surfactant. Substances were administered by intravenous injection the retro-orbital venous sinus. […] All the male mice, 3-4 weeks old were obtained from Jackson Laboratories Bar Harbour, Me. Immediately before anticonvulsant testing, mice were placed upon a wire mesh, 4 inches square suspended from a steel rod. The square was slowly inverted through 180 degree and mice observed for 30 seconds. Any mouse falling from the wire mesh was scored as ataxia.
Mice were placed into an enclosed acrylic plastic chamber (21 cm in height, approximately 30 cm diameter) with a high-frequency speaker (4 cm diameter) in the center of the top lid. An audio signal generator (Protek model B-810) was used to produce a continuous sinusoidal tone that was swept linearly in frequency between 8 kHz and 16 kHz once each 10 msec. The average sound pressure level (SPL) during stimulation was approximately 100 dB at the floor of the chamber. Mice were placed within the chamber and allowed to acclimatize for 1 minute. DBA/2 mice in the vehicle-treated group responded to the sound stimulus (applied until tonic extension occurred, or for a maximum of 60 sec) with a characteristic seizure sequence consisting of wild running followed by clonic seizures, and later by tonic extension, and finally by respiratory arrest and death in 80% or more of the mice. In vehicle-treated mice, the entire sequence of seizures to respiratory arrest lasts approximately 15-20 seconds.
The incidence of all the seizure phases in the drug-treated and vehicle-treated mice was recorded, and the occurrence of tonic seizures were used for calculating anticonvulsant ED50 values by probit analysis. Mice were used only once for testing at each time and dose point.

Read-outs that look alike come from different tables or passages of the source.

This note sets out measurements from patent US6423689B1, “Peptidyl calcium channel blockers” (Warner-Lambert Company, priority 1997, dated 2002).

T1 sequence (Q02294 whole entry): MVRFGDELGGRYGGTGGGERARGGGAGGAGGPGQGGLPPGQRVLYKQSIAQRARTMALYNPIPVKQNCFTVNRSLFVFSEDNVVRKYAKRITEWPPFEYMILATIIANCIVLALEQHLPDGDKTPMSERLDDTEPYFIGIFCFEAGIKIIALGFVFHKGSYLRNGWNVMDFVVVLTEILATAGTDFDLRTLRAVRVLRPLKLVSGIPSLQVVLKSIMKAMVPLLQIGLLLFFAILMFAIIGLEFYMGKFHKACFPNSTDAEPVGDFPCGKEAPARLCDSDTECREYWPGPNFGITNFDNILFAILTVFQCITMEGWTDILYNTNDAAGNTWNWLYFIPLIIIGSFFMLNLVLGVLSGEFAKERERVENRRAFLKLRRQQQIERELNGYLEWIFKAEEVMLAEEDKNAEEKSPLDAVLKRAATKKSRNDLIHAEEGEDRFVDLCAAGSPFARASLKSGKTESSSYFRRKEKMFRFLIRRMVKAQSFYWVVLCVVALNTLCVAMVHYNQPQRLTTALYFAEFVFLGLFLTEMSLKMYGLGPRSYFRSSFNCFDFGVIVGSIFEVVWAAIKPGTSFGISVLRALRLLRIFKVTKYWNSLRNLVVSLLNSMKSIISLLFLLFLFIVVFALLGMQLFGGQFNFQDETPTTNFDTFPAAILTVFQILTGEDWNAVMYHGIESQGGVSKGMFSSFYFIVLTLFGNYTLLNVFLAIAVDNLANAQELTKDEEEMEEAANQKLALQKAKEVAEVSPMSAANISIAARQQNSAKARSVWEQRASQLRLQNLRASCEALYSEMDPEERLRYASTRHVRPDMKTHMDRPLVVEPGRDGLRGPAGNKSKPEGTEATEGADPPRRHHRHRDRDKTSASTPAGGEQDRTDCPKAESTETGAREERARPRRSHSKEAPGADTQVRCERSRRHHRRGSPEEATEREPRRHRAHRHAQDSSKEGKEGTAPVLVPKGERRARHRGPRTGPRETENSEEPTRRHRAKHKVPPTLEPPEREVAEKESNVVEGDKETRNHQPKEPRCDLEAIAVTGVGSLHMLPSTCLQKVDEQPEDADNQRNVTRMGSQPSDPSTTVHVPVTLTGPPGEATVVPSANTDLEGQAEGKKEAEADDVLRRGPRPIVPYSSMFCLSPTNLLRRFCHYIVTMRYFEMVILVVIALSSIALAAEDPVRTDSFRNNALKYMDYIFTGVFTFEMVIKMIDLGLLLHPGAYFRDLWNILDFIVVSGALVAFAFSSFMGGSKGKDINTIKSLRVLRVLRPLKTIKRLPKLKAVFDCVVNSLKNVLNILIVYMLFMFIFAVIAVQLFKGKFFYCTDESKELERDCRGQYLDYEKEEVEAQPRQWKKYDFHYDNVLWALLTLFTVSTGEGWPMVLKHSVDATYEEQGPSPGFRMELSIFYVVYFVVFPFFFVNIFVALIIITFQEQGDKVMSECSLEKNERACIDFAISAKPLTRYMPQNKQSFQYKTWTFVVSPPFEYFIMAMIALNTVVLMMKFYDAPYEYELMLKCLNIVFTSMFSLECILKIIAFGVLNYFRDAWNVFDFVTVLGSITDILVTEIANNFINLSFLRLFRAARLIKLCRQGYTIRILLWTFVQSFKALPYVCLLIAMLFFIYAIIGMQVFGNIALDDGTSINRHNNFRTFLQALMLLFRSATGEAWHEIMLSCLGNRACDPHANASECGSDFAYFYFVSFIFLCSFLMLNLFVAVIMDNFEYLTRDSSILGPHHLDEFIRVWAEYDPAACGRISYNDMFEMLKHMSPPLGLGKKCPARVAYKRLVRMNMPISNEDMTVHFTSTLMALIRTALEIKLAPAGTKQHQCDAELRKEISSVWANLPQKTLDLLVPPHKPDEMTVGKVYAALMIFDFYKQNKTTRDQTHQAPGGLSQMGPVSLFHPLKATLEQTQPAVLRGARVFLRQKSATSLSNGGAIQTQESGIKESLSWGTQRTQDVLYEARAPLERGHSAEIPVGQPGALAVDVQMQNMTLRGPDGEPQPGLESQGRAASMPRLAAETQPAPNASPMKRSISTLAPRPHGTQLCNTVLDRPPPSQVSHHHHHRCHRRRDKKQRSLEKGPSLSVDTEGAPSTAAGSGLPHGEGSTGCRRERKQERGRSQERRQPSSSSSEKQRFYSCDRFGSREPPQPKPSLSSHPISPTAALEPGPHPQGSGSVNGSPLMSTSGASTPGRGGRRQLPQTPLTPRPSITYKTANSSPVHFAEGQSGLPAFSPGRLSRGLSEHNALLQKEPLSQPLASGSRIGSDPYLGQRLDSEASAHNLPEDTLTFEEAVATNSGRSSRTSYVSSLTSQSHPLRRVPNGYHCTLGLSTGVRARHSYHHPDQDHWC
T1 sequence (P54290 25-944 partner limits assumed): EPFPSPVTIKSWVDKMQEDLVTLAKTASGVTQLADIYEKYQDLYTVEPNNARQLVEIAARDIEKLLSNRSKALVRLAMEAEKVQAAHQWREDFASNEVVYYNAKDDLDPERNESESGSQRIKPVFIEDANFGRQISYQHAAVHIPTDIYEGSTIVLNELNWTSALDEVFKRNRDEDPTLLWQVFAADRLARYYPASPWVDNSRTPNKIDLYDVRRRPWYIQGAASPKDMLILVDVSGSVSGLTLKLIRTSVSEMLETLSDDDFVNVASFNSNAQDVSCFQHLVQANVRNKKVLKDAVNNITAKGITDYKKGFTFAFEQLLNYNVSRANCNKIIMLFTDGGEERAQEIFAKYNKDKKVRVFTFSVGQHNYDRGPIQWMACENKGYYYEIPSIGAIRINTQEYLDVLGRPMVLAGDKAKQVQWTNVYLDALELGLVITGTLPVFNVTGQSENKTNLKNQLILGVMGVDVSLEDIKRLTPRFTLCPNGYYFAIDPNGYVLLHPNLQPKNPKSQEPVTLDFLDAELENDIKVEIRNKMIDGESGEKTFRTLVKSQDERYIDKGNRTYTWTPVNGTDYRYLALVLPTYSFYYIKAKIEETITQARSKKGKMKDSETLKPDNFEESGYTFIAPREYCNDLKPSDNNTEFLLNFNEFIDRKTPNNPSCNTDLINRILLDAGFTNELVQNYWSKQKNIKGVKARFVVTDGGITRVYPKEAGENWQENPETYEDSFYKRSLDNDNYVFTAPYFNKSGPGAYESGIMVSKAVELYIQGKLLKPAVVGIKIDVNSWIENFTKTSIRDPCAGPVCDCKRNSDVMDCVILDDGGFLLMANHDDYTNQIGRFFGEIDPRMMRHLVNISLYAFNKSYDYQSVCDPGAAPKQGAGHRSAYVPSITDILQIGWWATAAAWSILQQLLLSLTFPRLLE
T1 sequence (P54290 945-1091 partner limits assumed): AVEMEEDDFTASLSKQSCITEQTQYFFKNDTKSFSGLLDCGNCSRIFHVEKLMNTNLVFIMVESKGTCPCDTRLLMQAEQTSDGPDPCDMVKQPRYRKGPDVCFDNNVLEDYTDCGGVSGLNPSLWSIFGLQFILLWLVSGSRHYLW
T1 sequence (P54287 whole entry partner): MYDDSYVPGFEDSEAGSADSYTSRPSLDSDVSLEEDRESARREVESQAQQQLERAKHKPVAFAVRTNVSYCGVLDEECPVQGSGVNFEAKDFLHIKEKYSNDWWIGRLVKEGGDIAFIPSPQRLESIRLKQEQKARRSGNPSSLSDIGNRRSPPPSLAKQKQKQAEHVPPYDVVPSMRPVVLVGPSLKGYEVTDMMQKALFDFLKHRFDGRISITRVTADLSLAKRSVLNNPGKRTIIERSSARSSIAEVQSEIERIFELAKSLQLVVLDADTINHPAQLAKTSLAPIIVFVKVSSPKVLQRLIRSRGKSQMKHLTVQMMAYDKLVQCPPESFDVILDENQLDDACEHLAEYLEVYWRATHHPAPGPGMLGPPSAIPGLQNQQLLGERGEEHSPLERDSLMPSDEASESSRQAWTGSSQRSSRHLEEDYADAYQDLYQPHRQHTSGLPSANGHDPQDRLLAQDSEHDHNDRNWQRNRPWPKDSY

As for `CC(C)(C)OC(=O)[C@H](Cc1ccc(OCc2ccccc2)cc1)NC(=O)CNC(=O)N1CCCCCC1` (stereo in doubt) [Example 8, [S-(R*,R*)]-2-{2-[(Azepane-1-carbonyl)-amino]-acetylamino}-3-(4-benzyloxy-phenyl)-propionic acid tert-butyl ester], the “Inhibition of N-type Ca2+ Current, % Inhibition at 10 μM” value in test [1] (10 μM) is 86%. Also, the IC50 (usually the concentration that gives 50% inhibition) in test [1] was 1.92 µM. Further, the “Inhibition of K+ Current, % Inhibition at 10 μM” value in test [2] stood at 72%. Also, in test [3], the “Inhibition of Na+ Current, % Inhibition at 10 μM” value is reported as 43%. Further, the “Number of Mice Protected from Tonic Convulsions” value in the test with DBA/2 mice (30 mg/Kg iv, 15 min post treatment) is listed as 4/5.

Turning to `CC(C)C[C@H](NC(=O)N1CCCCCC1)C(=O)N[C@@H](Cc1ccc(OCc2ccccc2)cc1)C(=O)OC(C)(C)C` [Example 1], in test [1] (10 μM), the inhibition (in general, the share of the control response that was lost under treatment) at 10 µM came to 68%. Further, the IC50 in test [1] is 1.27 µM; in test [2] (read-out: Inhibition of K+ Current IC50), 24 µM; in test [3] (read-out: Inhibition of Na+ Current IC50), 14 µM. In addition, the “Inhibition of K+ Current, % Inhibition at 10 μM” value in test [2] came to 31%. Besides, the “Inhibition of Na+ Current, % Inhibition at 10 μM” value in test [3] was 28%. Besides, the responders at 10 mg/kg in the test with DBA/2 mice (0.25 h) and in the test on DBA/2 mice (0.75 h) was 0% throughout. For the same compound, in the test on DBA/2 mice (0.25 h), the responders at 30 mg/kg was 100%. Also, the responders at 100 mg/kg was 100% in the test on DBA/2 mice (0.25 h), 100% with DBA/2 mice (0.5 h) and 0% with DBA/2 mice (1 h).

In test [1] (10 μM), `CC(C)(C)OC(=O)[C@H](Cc1ccc(OCc2ccccc2)cc1)NC(=O)[C@H](Cc1ccccc1)NC(=O)N1CCCCCC1` [Example 16] displayed an inhibition at 10 µM of 19%. Besides, the “Inhibition of K+ Current, % Inhibition at 10 μM” value in test [2] is 20%. In test [3], the “Inhibition of Na+ Current, % Inhibition at 10 μM” value was determined as 38%.

As to `CC(C)C[C@H](NC(=O)N1CCCCCC1)C(=O)N[C@@H](Cc1ccc(OCc2ccccc2)cc1)C(N)=O` [Example 21, [S-(R*,R*)]-Azepane-1-carboxylic acid {1-[2-(4-benzyloxy-phenyl)-1-carbamoyl-ethylcarbamoyl]-3-methyl-butyl}-amide], testing at 10 µM in test [1] (10 μM) gave an inhibition of 45%. The “Inhibition of K+ Current, % Inhibition at 10 μM” value in test [2] is recorded as 56%. In test [3], the “Inhibition of Na+ Current, % Inhibition at 10 μM” value worked out at 16%. The responders at 30 mg/kg in the test on DBA/2 mice (0.75 h) was 0%.

On to `CC(C)C[C@H](NC(=O)N1CCCCCC1)C(=O)N[C@@H](Cc1ccc(OCc2ccccn2)cc1)C(=O)OC(C)(C)C` [Example 25, [S-(R*,R*)]-2-{2-[(Azepane-1-carbonyl)-amino]-4-methyl-pentanoylamino}-3-[4-(pyridin-2-ylmethoxy)-phenyl]-propionic acid tert-butyl ester], for which, in test [1] (10 μM), the inhibition at 10 µM worked out at 66%. For the same compound, in test [1], the IC50 came out at 5.33 µM. Besides, in test [2], the “Inhibition of K+ Current, % Inhibition at 10 μM” value turned out to be 51%. Moreover, in test [3], the “Inhibition of Na+ Current, % Inhibition at 10 μM” value is 16%. In addition, in the test with DBA/2 mice (0.25 h), the responders at 30 mg/kg was 100%.

In test [1] (10 μM), `CC(C)C[C@H](NC(=O)N1CCCCCC1)C(=O)N[C@@H](Cc1ccc(OCc2ccncc2)cc1)C(=O)OC(C)(C)C` [Example 26, [S-(R*,R*)]-2-{2-[(Azepane-1-carbonyl)-amino]-4-methyl-pentanoylamino}-3-[4-(pyridin-4-ylmethoxy)-phenyl]-propionic acid tert-butyl ester] showed an inhibition at 10 µM of 58%. Also, the “Inhibition of K+ Current, % Inhibition at 10 μM” value in test [2] is on record as 41%. Further, the “Inhibition of Na+ Current, % Inhibition at 10 μM” value in test [3] was 13%. Further, the responders at 10 mg/kg with DBA/2 mice (0.25 h) was 100%.

As for `CC(C)C[C@H](NC(=O)N1CCCCCC1)C(=O)N[C@@H](Cc1ccc(C#CC2(O)CCCCC2)cc1)C(=O)NC(C)(C)C` [Example 138, [S-(R*,R*)]-Azepane-1-carboxylic acid (1-({-tert-butylcarbamoyl-2-[4-(1-hydroxy-cyclohexylethynyl)-phenyl]-ethylcarbamoyl}-3-methyl-butyl)-amide], in test [1] (10 μM), the inhibition at 10 µM was 17%. Further, in test [2], the “Inhibition of K+ Current, % Inhibition at 10 μM” value worked out at 43%. The “Inhibition of Na+ Current, % Inhibition at 10 μM” value in test [3] was determined as 31%.

In test [1] (10 μM), `CC(C)C[C@H](NC(=O)N1CCCCCC1)C(=O)N[C@@H](Cc1ccc(C=Cc2ccccc2)cc1)C(=O)NC(C)(C)C` [Example 141, [S-(R*,R*)]-Azepane-1-carboxylic acid {1-[1-tert-butylcarbamoyl-2-(4-styryl-phenyl)-ethylcarbamoyl]-3-methyl-butyl}-amide] came in with an inhibition at 10 µM of 39%. In addition, the “Inhibition of K+ Current, % Inhibition at 10 μM” value in test [2] is given as 42%. In addition, the “Inhibition of Na+ Current, % Inhibition at 10 μM” value in test [3] amounted to 18%.

As for `CC(C)C[C@H](NC(=O)N1CCCCCC1)C(=O)N[C@@H](Cc1ccc(OCc2ccccc2)cc1)C(=O)NCCCn1ccnc1` [Example 237, [S-(R*,R*)]-Azepane-1-carboxylic acid {(1-[2-(4-benzyloxy phenyl)-1-(3-imidazol-1-yl-propylcarbamoyl)-ethylcarbamoyl]-3-methyl-butyl}-amide], the inhibition at 10 µM in test [1] (10 μM) came to 79%. Further, in the test with DBA/2 mice (0.25 h), the responders at 30 mg/kg came to 0%.
